Structures can show the parent of a compound that is named as a salt.
How the values were obtained:
[1] = Side effects reported by treated patients
Method: The patient is treated with a total daily dose of medicine, which includes an admixture of 25 mg of imipramine hydrochloride and 275 mg of stool softener (docusate sodium). […] A selective beta-blocker is administered in response to tachycardia on an as-needed basis.

[2] = system: urinary incontinence and/or urinary urgency; experiment: Treatment of patients presenting urinary incontinence and/or urinary urgency (case examples)
Method: The patient stops taking the daily dosages.
The complaints include urinary incontinence and/or urinary urgency (awake and sleeping).
The patient is treated with a total daily dose of medicine, which includes 50 mg of tricyclic antidepressant (imipramine hydrochloride) and 300 mg of stool softener (docusate sodium).
The complaints include chronic urinary incontinence and/or urinary urgency.
The patient is treated with a total daily dose of medicine, which includes 50 mg of imipramine hydrochloride and 350 mg of stool softener (docusate sodium), ingested separately.
The complaints include chronic, intermittent urinary incontinence and urinary urgency.
The patient is treated with a total daily dose of medicine, which includes an admixture of 25 mg of imipramine hydrochloride and 275 mg of stool softener (docusate sodium).

urinary incontinence = experiment: Treatment of a group of cats and dogs presenting urinary incontinence; assay type: in vivo; details: admixture of 5 mg/day imipramine hydrochloride and 100 mg stool softener (or by weight), oral, after several days; group of twenty cats and dogs
Excerpt: A group of twenty mammals, including female and male cats and dogs, present with urinary incontinence.

Row | Structure (SMILES) | adverse side effects ([1]; 75 mg/day imipramine pamoate without stool softener, oral) | control of bladder functions noted by patient ([2]; 75 mg/day imipramine pamoate without stool softener, oral, after several days) | recurrence of symptoms after stopping daily dosages ([2]; after about three days without treatment) | reduction or elimination of urinary incontinence (urinary incontinence) | adverse side effects ([1]; 75 mg/day imipramine hydrochloride (25 mg/3 times daily) and a stool softener, oral) | adverse side effects ([1]; admixture of 25 mg/day imipramine hydrochloride and 275 mg docusate sodium, selective beta-blocker given as needed) | control of bladder functions (awake and sleeping) noted by patient ([2]; 50 mg/day imipramine hydrochloride and 300 mg docusate sodium, oral, after several days) | control of bladder functions (awake and sleeping) noted by patient ([2]; 50 mg/day imipramine hydrochloride and 350 mg docusate sodium, ingested separately, oral, after several days) | control of bladder functions (awake and sleeping) noted by patient ([2]; 75 mg/day imipramine hydrochloride (25 mg/3 times daily) and a stool softener, oral, after several days) | control of bladder functions (awake and sleeping) noted by patient ([2]; admixture of 25 mg/day imipramine hydrochloride and 275 mg docusate sodium, oral, after several days)
1 | CN(C)CCCN1c2ccccc2CCc2ccccc21.CN(C)CCCN1c2ccccc2CCc2ccccc21.O=C(O)c1cc2ccccc2c(Cc2c(O)c(C(=O)O)cc3ccccc23)c1O [imipramine pamoate, 5-[3-(dimethylamino)]propyl-10,11-dihydro-5H-dibenzazepine 4,4-methlyenebis-(3-hydroxy-2-napthoate)] | develops constipation | full control of bladder functions | bladder urgency and incontinence recur | – | – | – | – | – | – | –
2 | CN(C)CCCN1c2ccccc2CCc2ccccc21 [imipramine hydrochloride, Imipramine hydrochloride] | – | – | – | reduction or elimination of urinary incontinence for a significant portion of the members of the group | tolerates a dry mouth | tachycardia | full control of bladder functions | partial to full control of bladder functions | partial to full control of bladder functions | partial to full control of bladder functions
